Biological target: T1, human MCH receptor (Homo sapiens, UniProt Q99705)
T1 construct: expressed in transfected cells
Test: Functional measurement of cellular calcium flow (FLIPR) in recombinant HEK293 cells expressing human MCH receptor
Type: cell-based
Settings: cellular assay, calcium flow after addition of agonist (MCH), HEK293 (PEAK Stable Cells) expressing human MCH receptor
Text: In two simultaneously published articles in Nature (Nature, 400:261-264, 1999; Nature, 400:265-269, 1999, see enclosure), two groups separately described a highly specific receptor for melanin-concentrating hormone (MCH). MCH takes over important functions in the control of food intake. Compounds acting on the MCH receptor therefore have anorectic action and are suitable for the treatment of obesity. The test for anorectic action of the inventive compounds of formula I was therefore carried out as follows.
Functional measurements for determination of IC50
Cloning of the cDNA for human MCH receptor, preparation of a recombinant HEK293 cell line expressing human MCH receptor and functional measurements with said recombinant cell line were carried out according to the description by Audinot et al. (J. Biol. Chem., 276, 13554-13562, 2001). In contrast to the reference, however, plasmid pEAK8 from EDGE Biosystems (USA) was used for constructing the expression vector. A transformed HEK cell line named “PEAK Stable Cells” (likewise from EDGE Biosystems) served as host for transfection. The functional measurements of cellular calcium flow, after addition of agonists (MCH), in the presence of the ligand of the invention was carried out with the aid of the FLIPR instrument from Molecular Devices (USA), using the manufacturer's protocols.

T1 sequence (Q99705 whole entry): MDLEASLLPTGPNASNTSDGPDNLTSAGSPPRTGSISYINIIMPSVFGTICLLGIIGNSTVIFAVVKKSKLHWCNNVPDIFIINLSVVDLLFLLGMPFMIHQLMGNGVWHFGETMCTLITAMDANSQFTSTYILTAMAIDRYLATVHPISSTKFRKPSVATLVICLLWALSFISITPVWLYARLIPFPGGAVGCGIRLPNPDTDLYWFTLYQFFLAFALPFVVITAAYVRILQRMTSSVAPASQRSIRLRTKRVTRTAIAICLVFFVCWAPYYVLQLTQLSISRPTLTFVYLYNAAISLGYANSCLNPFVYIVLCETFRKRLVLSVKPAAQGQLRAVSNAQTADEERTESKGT

Structure (SMILES)	IC50 [nM]
CCCCOc1ccc(NC(=O)Nc2ccc3c(ccn3CCN(C)C)c2)cc1 [Example 2, 1-(4-Butoxyphenyl)-3-[1-(2-dimethylaminoethyl)-1H-indol-5-yl]urea]	150
COc1cccc(Oc2ccc(NC(=O)Nc3ccc4c(ccn4CCN(C)C)c3)cc2)c1 [Example 109, 1-[1-(2-Dimethyl-aminoethyl)-1H-indol-5-yl]-3-[4-(3-meth-oxyphenoxy)-phenyl]urea]	1290
COc1cc(Nc2ccccc2)ccc1NC(=O)Nc1ccc2c(ccn2CCN(C)C)c1 [Example 79, 1-[1-(2-Dimethyl-aminoethyl)-1H-indol-5-yl]-3-(2-meth-oxy-4-phenyl-aminophenyl)-urea]	2130
Cc1nc2cc(NC(=O)Nc3ccc(Oc4ccccc4)cc3)ccc2n1CCN1CCCCC1 [Example 15, 1-[2-Methyl-1-(2-piperidin-1-ylethyl)-1H-benzoimidazol-5-yl]-3-(4-phenoxyphenyl) urea]	180
CN(C)CCn1ccc2cc(NC(=O)Nc3ccc(Oc4cccc(C(F)(F)F)c4)cc3)ccc21 [Example 86, 1-[1-(2-Di-methylaminoethyl)-1H-in-dol-5-yl]-3-[4-(3-tri-fluoromethyl-phenoxy)phenyl]urea]	2780
CCN1CCCC1Cn1c(C)nc2cc(NC(=O)Nc3ccc(OC(C)C)cc3)ccc21 (stereo not drawn) [Example 6, 1-[1-(1-Ethylpyrrolidin-2-ylmethyl)-2-methyl-1H-benzoimidazol-5-yl]-3-(4-isopropoxyphenyl)urea]	2340
CN(C)CCn1ccc2cc(NC(=O)Nc3ccc(OCc4ccccc4)cc3)ccc21 [Example 80, 1-(4-Benzyloxyphenyl)-3-[1-(2-di-methylaminoethyl)-1H-in-dol-5-yl]urea]	3360
Cc1nc2cc(NC(=O)Nc3ccc(OC(C)C)cc3)ccc2n1CCN1CCCCC1 [Example 7, 1-(4-Isopropoxyphenyl)-3-[2-methyl-1-(2-piperidin-1-ylethyl)-1H-benzoimidazol-5-yl]urea]	450
Cc1nc2cc(NC(=O)Nc3ccc(OC(C)C)cc3)ccc2n1CCN1CCOCC1 [Example 8, 1-(4-Isopropoxyphenyl)-3-[2-methyl-1-(2-morpholin-4-yl-ethyl)-1H-benzoimidazol-5-yl]urea]	1900
Cc1nc2cc(NC(=O)Nc3ccc(OC(C)C)cc3)ccc2n1CCN(C)C [Example 5, 1-[1-(2-Dimethylaminoethyl)-2-methyl-1H-benzoimidazol-5-yl]-3-(4-isopropoxyphenyl)urea]	500
COc1ccccc1Oc1ccc(NC(=O)Nc2ccc3c(ccn3CCN(C)C)c2)cc1 [Example 76]	4250
CN(C)Cc1nc2cc(NC(=O)Nc3ccc(Oc4ccccc4)cc3)ccc2[nH]1 [Example 17, 1-(2-Dimethylaminomethyl-1H-benzoimidazol-5-yl)-3-(4-phenoxyphenyl)urea]	2140
CN(C)CCn1c(-c2ccccc2)nc2cc(NC(=O)Nc3ccc(Oc4ccccc4)cc3)ccc21 [Example 13, 1-[1-(2-Dimethylaminoethyl)-2-phenyl-1H-benzoimidazol-5-yl]-3-(4-phenoxyphenyl)urea]	2500
CN(C)CCn1ccc2cc(NC(=O)Nc3ccc(Oc4ccccc4)nc3)ccc21 [Example 106, 1-[1-(2-Di-methylaminoethyl)-1H-in-dol-5-yl]-3-(6-phenoxy-pyridin-3-yl)urea]	200
CCN1CCCC1Cn1c(C)nc2cc(NC(=O)Nc3ccc(Oc4ccccc4)cc3)ccc21 (stereo not drawn) [Example 16, 1-[1-(1-Ethylpyrrolidin-2-ylmethyl)-2-methyl-1H-benzoimidazol-5-yl]-3-(4-phenoxy-phenyl)urea]	330
Cc1nc2cc(NC(=O)Nc3ccc(Oc4ccccc4)cc3)ccc2n1CCN1CCCC1 [Example 9]	100
Cn1c(CN2CCCC2)cc2cc(NC(=O)Nc3ccc(Oc4ccccc4)cc3)ccc21 [Example 3, 1-(1-Methyl-2-pyrrolidin-1-ylmethyl-1H-indol-5-yl)-3-(4-phenoxyphenyl)urea]	290
Cc1cc2cc(NC(=O)Nc3ccc(Oc4ccccc4)cc3)ccc2n1CCN(C)C [Example 19, 1-[1-(2-Dimethylaminoethyl)-2-methyl-1H-indol-5-yl]-3-(4-phenoxyphenyl)urea]	700
O=C(Nc1ccc(Oc2ccccc2)cc1)Nc1ccc2c(c1)ncn2CCN1CCCC1 [Example 11, 1-(4-Phenoxyphenyl)-3-[1-(2-pyrrolidin-1-ylethyl)-1H-benzoimidazol-5-yl]urea]	140
Cc1nc2cc(NC(=O)Nc3ccc(Oc4ccccc4)cc3)ccc2n1CCN(C)C [Example 10, 1-[2-Methyl-1-(2-dimethylaminoethyl)-1H-benzoimidazol-5-yl]-3-(4-phenoxyphenyl)urea]	110
CC(C)COc1ccc(NC(=O)Nc2ccc3c(ccn3CCN(C)C)c2)c(F)c1 [Example 63, 1-[1-(2-Dimethyl-aminoethyl)-1H-in-dol-5-yl]-3-(2-fluoro-4-iso-butoxyphenyl)urea]	570
Cc1c(C)n(CCN(C)C)c2ccc(NC(=O)Nc3ccc(Oc4ccccc4)cc3)cc12 [Example 18, 1-[1-(2-Dimethylaminoethyl)-2,3-dimethyl-1H-indol-5-yl]-3-(4-phenoxyphenyl)urea]	1040
CC(C)COc1ccc(NC(=O)Nc2ccc3c(ccn3CCN(C)C)c2)cc1 [Example 72, 1-[1-(2-Dimethyl-aminoethyl)-1H-in-dol-5-yl]-3-(4-iso-butoxyphenyl)urea]	320
CCc1nc2cc(NC(=O)Nc3ccc(Oc4ccccc4)cc3)ccc2n1CCN1CCCC1 [Example 14, 1-[2-Ethyl-1-(2-pyrrolidin-1-ylethyl)-1H-benzoimidazol-5-yl]-3-(4-phenoxyphenyl)urea]	300
CC(C)COc1ccc(NC(=O)Nc2ccc3c(ccn3CCN(C)C)c2)cc1F [Example 65, 1-[1-(2-Dimethyl-aminoethyl)-1H-in-dol-5-yl]-3-(3-fluoro-4-iso-butoxyphenyl)urea]	500

The next lines start with the values.

IC50 [nM]	Structure (SMILES)
2690	CN(C)CCn1ccc2cc(NC(=O)Nc3ccc(-c4ccc(F)cc4)cc3)ccc21 [Example 81, 1-[1-(2-Di-methylaminoethyl)-1H-in-dol-5-yl]-3-(4′-fluoro-biphenyl-4-yl)urea]
2910	CC1CCCN(c2ccc(NC(=O)Nc3ccc4c(ccn4CCN(C)C)c3)cc2)C1 (stereo not drawn) [Example 29, 1-[1-(2-Di-methylaminoethyl)-1H-in-dol-5-yl]-3-[4-(3-methyl-piperidin-1-yl)phe-nyl]urea]
1000	CN(C)CCn1ccc2cc(NC(=O)Nc3ccc(Oc4ccccc4Cl)cc3)ccc21 [Example 105, 1-[4-(2-Chloro-phenoxy)-phenyl]-3-[1-(2-di-methylaminoethyl)-1H-in-dol-5-yl]urea]
4420	CN(C)CCn1ccc2cc(NC(=O)Nc3ccc(N4CCCC4)cc3)ccc21 [Example 22, 1-[1-(2-Di-methylaminoethyl)-1H-in-dol-5-yl]-3-(4-pyr-rolidin-1-ylphe-nyl)urea]
400	Cc1ccc(Oc2ccc(NC(=O)Nc3ccc4c(ccn4CCN(C)C)c3)cc2)cc1 [Example 84, 1-[1-(2-Di-methylaminoethyl)-1H-in-dol-5-yl]-3-(4-p-tolyl-oxyphenyl)urea]
2750	CN(C)CCn1ccc2cc(NC(=O)Nc3ccc(-c4ccccc4)cc3)ccc21 [Example 78, 1-Biphenyl-4-yl-3-[1-(2-di-methylaminoethyl)-1H-in-dol-5-yl]urea]
700	CN(C)CCn1ccc2cc(NC(=O)Nc3ccc(Oc4cccc(Cl)c4)cc3)ccc21 [Example 77, 1-[4-(3-Chloro-phenoxy)-phe-nyl]-3-[1-(2-dimethyl-aminoethyl)-1H-in-dol-5-yl]urea]
2650	CCCCc1ccc(NC(=O)Nc2ccc3c(ccn3CCN(C)C)c2)cc1 [Example 71, 1-(4-Butylphenyl)-3-[1-(2-di-methylaminoethyl)-1H-in-dol-5-yl]urea]
1240	CC1CCN(c2ccc(NC(=O)Nc3ccc4c(ccn4CCN(C)C)c3)cc2)CC1 [Example 33, 1-[1-(2-Di-methylaminoethyl)-1H-in-dol-5-yl]-3-[4-(4-methyl-piperidin-1-yl)phe-nyl]urea]
1000	Cc1cccc(Oc2ccc(NC(=O)Nc3ccc4c(ccn4CCN(C)C)c3)cc2)c1 [Example 107, 1-[1-(2-Di-methylaminoethyl)-1H-in-dol-5-yl]-3-(4-m-tolyl-oxyphenyl)urea]
860	CN(C)CCn1ccc2cc(NC(=O)Nc3ccc(N4CC=CCC4)cc3)ccc21 [Example 24, 1-[4-(3,6-Dihydro-2H-py-ridin-1-yl)phenyl]-3-[1-(2-di-methylaminoethyl)-1H-in-dol-5-yl]urea]
430	Cc1ccccc1Oc1ccc(NC(=O)Nc2ccc3c(ccn3CCN(C)C)c2)cc1 [Example 108, 1-[1-(2-Di-methylaminoethyl)-1H-in-dol-5-yl]-3-(4-o-tolyl-oxyphenyl)urea]
920	CN(C)CCn1ccc2cc(NC(=O)Nc3ccc(N4CCSCC4)cc3)ccc21 [Example 26, 1-[1-(2-Di-methylaminoethyl)-1H-in-dol-5-yl]-3-(4-thio-morpholin-4-yl-phe-nyl)urea]
140	CN(C)CCn1ccc2cc(NC(=O)Nc3ccc(Oc4cccnc4)cc3)ccc21 [Example 73, 1-[1-(2-Dimethyl-aminoethyl)-1H-in-dol-5-yl]-3-[4-(py-ridin-3-yloxy)phe-nyl]urea]

From patent US20040198731A1, “Aminoalkyl-substituted aromatic bicyclic compounds, methods for their preparation and their use as pharmaceuticals” (Aventis Pharma Deutschland GmbH, priority 2001, published 2004)
